What was measured:
[1] = tested on: Con A-activated splenocytes; assay: ELISPOT enumeration of IFN-γ and IL-4 producing cells in Con A-stimulated spleen cell cultures with culture supplements; format: cell-based, rat
Method: The aseptically removed spleen was gently crushed with the blunt end of a 5-ml syringe plunger and passaged through a fine mesh nylon screen. Erythrocytes were hemolysed by adding cold sterile water for 20 sec. to cell pellets followed by the addition of half the volume of 2.7% saline. The number of cells was determined by use of Türk's solution and cell viability by means of trypan blue exclusion. Cell suspensions in which the viability was less than 85% were excluded from the studies. Splenocytes were washed twice with CM5, adjusted to 4 x 10^6 cells/ml, transferred to a 24-well culture plate (1.0 ml/well) and stimulated with Con A (5 µg/ml) in the presence or absence of various supplements (as indicated in the text) for 40 h at 37°C in a humidified atmosphere containing 5% CO2. Thereafter, non-adherent cells were collected and subjected to ELISPOT analyses as described below.
The ELISPOT assay for detecting single cytokine secreting cells has been detailed previously (17). Briefly, the wells of PVC microplates were coated with monoclonal antibodies specific for rat IFN-γ or rat IL-4. After washing and postcoating, 100 µl suspensions of Con A-activated splenocytes were pipetted into the wells. The cells were allowed the produce cytokines for either 4 h (IFN-γ pc) or 16 h (IL-4 pc). Thereafter, cells were lysed for 10 minutes with ice-cold distilled water. Subsequently, the wells were thoroughly washed with PBS containing 0.05% Tween-20. Spots were detected by the sequential incubation of biotinylated rabbit anti-cytokine antibodies and goat anti-biotin antibodies conjugated to alkaline phosphatase (AP). The AP substrate 5-bromo-4-chloro-3-indolyl phosphate was used to produce blue zones ('spots') that visualised the positions of the individual spot-forming cells (SFC). SFC were enumerated by image analysis using a stereo microscope coupled to a colour video camera and Micro Image software from Olympus Optical Co. The frequency of spontaneously occurring SFC was always less than 1% of the mitogen-induced frequency.

[2] = GSH-mediated decomposition of GSNO in phosphate buffer (absorbance 335 nm, nitrite, nitrate, ammonia); format: physicochemical
Method: For each experiment GSNO was prepared freshly. […] Three independent experiments were performed with similar results. […] Nitrite levels were measured by the colorimetric Griess reaction. Two independent experiments were performed which produced similar results.
Nitrate was not detected in the solutions.

peritoneal macrophages [3] = assay: H2O2 production by purified peritoneal macrophages (homovanillic acid/HRP); format: cell-based, rat; details: stimulus PMA 5 ng/ml
Method: The spontaneous or PMA/IFN-γ-triggered release of H2O2 was determined by the same method as described for splenocytes. Macrophage monolayers were incubated for 24 h in CM10 with or without rat IFN-γ (1000 U/ml). Subsequently, cells were washed twice with prewarmed PBS and incubated for 1 h in 1.0 ml PBS containing […] CaCl2, […] MgCl2, […] D-glucose, 1.0 unit HRP, […] homovanillic acid and 5 ng/ml PMA. After termination of the reaction, the amount of oxidised homovanillic acid in the supernatant was determined spectrofluorometrically. The cellular proteins in the wells were solubilized by adding 250 µl 0.5% (w/v) sodium dodecylsulphate in 0.2 N NaOH. The amount of solubilized protein was determined by a modification of the Lowry method (19). The results are expressed as nmoles H2O2 per mg of protein.
(§1) Peritoneal cells were collected from rats by lavage with 10 ml ice-cold saline containing 50 units/ml heparin. Cells were washed twice with CM10 and resuspended in CM10 to a concentration of 2 x 10^6 cells/ml. Total cell counts were obtained with a Bürker hemocytometer and differential counts performed on centrifuge preparations fixed in absolute methanol and stained with Giemsa stain. The peritoneal cell suspension of Lewis rats consisted of 70 ± 3% macrophages, 13 ± 1% lymphocytes, 14 ± 1% granulocytes and 3 ± 1% mast cells (n = 3). […]

peritoneal macrophages [4] = assay: Superoxide anion production by purified peritoneal macrophages (SOD-inhibitable ferricytochrome C reduction); format: cell-based, rat; details: stimulus PMA 5 ng/ml
Method: as §1, with “3). The peritoneal cells of BN rats were composed of 61 ± 2% macrophages, 12 ± 1% lymphocytes, 26 ± 2% granulocytes and 2 ± 1% mast cells (n = 3). Cells were fractionated by culturing them in the wells of a 24-well tissue culture plate at a concentration of 2 x 10^6 cells/ml in CM10.” for “3).”
The pMØ monolayers were incubated for 20 h at 37°C in CM10 and subsequently washed (twice) with Hanks' balanced salt solution (HBSS) without phenol red. […] Each test was run in duplicate and the absorption increase at 550 nm was measured using a Beckmann DU-5 spectrophotometer. ^·O2^- release by splenocytes was determined after Con A activation of 4 x 10^6 cells for 20 h. […]

[5] = BN normal rats, GSH 2 mM, Con A
[6] = Lewis normal rats, GSH 2 mM, Con A
[7] = excess reducing agent added to cultures, splenocytes from BN or Lewis rats
[8] = normal Lewis rats, GSH 2 mM, no XO/HY, Con A 5 µg/ml (Table 5)
[9] = BN naive rats, NMMA 180 µM added after 20 h Con A + 2 mM GSH, further 20 h
[10] = BN naive rats, NMMA 360 µM added after 20 h Con A + 2 mM GSH, further 20 h
[11] = BN, HgCl2-exposed rats, NMMA 180 µM added after 20 h Con A + 2 mM GSH, further 20 h
[12] = BN, HgCl2-exposed rats, NMMA 360 µM added after 20 h Con A + 2 mM GSH, further 20 h
[13] = Lewis naive rats, NMMA 180 µM added after 20 h Con A + 2 mM GSH, further 20 h
[14] = Lewis naive rats, NMMA 360 µM added after 20 h Con A + 2 mM GSH, further 20 h
[15] = Lewis, HgCl2-exposed rats, NMMA 180 µM added after 20 h Con A + 2 mM GSH, further 20 h
[16] = Lewis, HgCl2-exposed rats, NMMA 360 µM added after 20 h Con A + 2 mM GSH, further 20 h

N[C@@H](CCC(=O)N[C@@H](CS)C(=O)NCC(=O)O)C(=O)O [GSH, Glutathione]
IFN-γ pc per 1x10^4 MNC [1, 5]: 98 ± 11 per 1 x 10^4 MNC
IL-4 pc per 2x10^5 MNC [1, 5]: 60 ± 5 per 2 x 10^5 MNC
ratio IFN-γ pc/IL-4 pc [1, 5]: 34
IFN-γ pc per 1x10^4 MNC [1, 6]: 139 ± 14 per 1 x 10^4 MNC
IL-4 pc per 2x10^5 MNC [1, 6]: 11 ± 3 per 2 x 10^5 MNC
ratio IFN-γ pc/IL-4 pc [1, 6]: 253
enhancement of the ratio of IFN-γ pc/IL-4 pc [1, 7]: approximately 10 fold
IFN-γ pc per 1x10^4 MNC [1, 8]: 103 ± 23 per 1 x 10^4 MNC
IL-4 pc per 2x10^5 MNC [1, 8]: 6 ± 1 per 2 x 10^5 MNC
ratio IFN-γ pc/IL-4 pc [1, 8]: 343

N[C@@H](CCC(=O)N[C@@H](CSN=O)C(=O)NCC(=O)O)C(=O)O [GSNO, S-nitrosoglutathione]
Nitrate in the solutions ([2]; GSH-triggered decomposition of GSNO): not detected
decomposition of GSNO ([2]; absence of GSH, 0.1 mM, 42 h, room temperature (not shown)): no significant decomposition
major decomposition product ([2]; molar ratios exceeding 20 (Fig. 5)): NH3
time in which decomposition was almost completed ([2]; ratio of GSH:GSNO of 320 (fig. 3)): ~5 h

OO [H2O2, hydrogen peroxide]
frequencies of IFN-γ pc and IL-4 pc ([1]; H2O2 up to 100 µM added to cultures (not shown)): did not affect

CNC(=N)NCCC[C@H](N)C(=O)O [NMMA, N^G-monomethyl-L-arginine]
IFN-γ pc per 1x10^4 MNC [1, 9]: 209 ± 19 per 1x10^4 MNC
IL-4 pc per 2x10^5 MNC [1, 9]: 32 ± 6 per 2x10^5 MNC
ratio pc IFN-γ/IL-4 [1, 9]: 131
IFN-γ pc per 1x10^4 MNC [1, 10]: 251 ± 14 per 1x10^4 MNC
IL-4 pc per 2x10^5 MNC [1, 10]: 30 ± 2 per 2x10^5 MNC
ratio pc IFN-γ/IL-4 [1, 10]: 167
IFN-γ pc per 1x10^4 MNC [1, 11]: 71 ± 11 per 1x10^4 MNC
IL-4 pc per 2x10^5 MNC [1, 11]: 54 ± 11 per 2x10^5 MNC
ratio pc IFN-γ/IL-4 [1, 11]: 26
IFN-γ pc per 1x10^4 MNC [1, 12]: 92 ± 17 per 1x10^4 MNC
IL-4 pc per 2x10^5 MNC [1, 12]: 20 ± 5 per 2x10^5 MNC
ratio pc IFN-γ/IL-4 [1, 12]: 92
enhancement of the ratio of IFN-γ pc/IL-4 pc ([1]; HgCl2-exposed rats, BN splenocyte cultures): 11 fold
enhancement of the ratio of IFN-γ pc/IL-4 pc ([1]; HgCl2-exposed rats, Lewis splenocyte cultures): 2 fold
IFN-γ pc per 1x10^4 MNC [1, 13]: 175 ± 9 per 1x10^4 MNC
IL-4 pc per 2x10^5 MNC [1, 13]: 14 ± 7 per 2x10^5 MNC
ratio pc IFN-γ/IL-4 [1, 13]: 250
IFN-γ pc per 1x10^4 MNC [1, 14]: 178 ± 11 per 1x10^4 MNC
IL-4 pc per 2x10^5 MNC [1, 14]: 13 ± 2 per 2x10^5 MNC
ratio pc IFN-γ/IL-4 [1, 14]: 274
IFN-γ pc per 1x10^4 MNC [1, 15]: 112 ± 5 per 1x10^4 MNC
IL-4 pc per 2x10^5 MNC [1, 15]: 10 ± 5 per 2x10^5 MNC
ratio pc IFN-γ/IL-4 [1, 15]: 224
IFN-γ pc per 1x10^4 MNC [1, 16]: 135 ± 10 per 1x10^4 MNC
IL-4 pc per 2x10^5 MNC [1, 16]: 8 ± 2 per 2x10^5 MNC
ratio pc IFN-γ/IL-4 [1, 16]: 338
increase in the ratio of IFN-γ pc/IL-4 pc ([1]; splenocyte cultures of naive BN rats): 4 fold

CCCCCCCCCCCCCC(=O)O[C@@H]1[C@@H](C)[C@@]2(O)[C@@H](C=C(CO)C[C@]3(O)C(=O)C(C)=C[C@@H]23)[C@@H]2C(C)(C)[C@]12OC(C)=O [PMA, phorbol 12-myristate 13-acetate]
ROI H2O2 (nmol/mg protein) (peritoneal macrophages [3]; BN normal rats): 8.7 nmol/mg protein
ROI H2O2 (nmol/mg protein) (peritoneal macrophages [3]; Lewis normal rats): 1.9 nmol/mg protein
ROI ^·O2^- (nmol/mg protein) (peritoneal macrophages [4]; BN normal rats): 388.2 nmol/mg protein
ROI ^·O2^- (nmol/mg protein) (peritoneal macrophages [4]; Lewis normal rats): 62.1 nmol/mg protein

N[C@@H](CS)C(=O)O [cysteine]
enhancement of the ratio of IFN-γ pc/IL-4 pc [1, 7]: approximately 10 fold

Reference: patent EP1013272A1, “Manipulation of the activity of a nitric oxide radical production pathway for the treatment of diseases associated with the presence of oxygen free radicals” (Biomedical Primate Research Centre (BPRC), priority 1998, dated 2000)
